Measured values as given in patent US11008323B2, “Substituted tricyclic 1,4-benzodiazepinone derivatives as allosteric modulators of group II metabotropic glutamate receptors” (Domain Therapeutics, priority 2015, dated 2021).
Counter-ions that a name gives are not always drawn.

Biological target: T1, human mGluR3 (hmGluR3) (Homo sapiens, UniProt Q14832)
T1 construct: expressed in transfected cells; host or cells: HEK-293 cells, transient co-transfection by electroporation
Test: Human mGluR3 positive allosteric modulator evaluation using Ca++ functional assay
Assay type: cell-based
Details: hmGluR3 transiently over-expressed in HEK-293 cells; stimulated by EC50 glutamate concentration; intracellular Ca2+ (Fluo4AM, FLIPR Tetra)
Method in brief: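 HEK-293 cells transiently co-expressing hmGluR3, a chimeric G protein and two glutamate transporters; Fluo4 calcium read on FLIPR. Compound alone for 10 min (agonist), then EC50 glutamate for 3 min (PAM); 20-point curves gave EC50, duplicate, two independent runs.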

T1 sequence (Q14832 23-879): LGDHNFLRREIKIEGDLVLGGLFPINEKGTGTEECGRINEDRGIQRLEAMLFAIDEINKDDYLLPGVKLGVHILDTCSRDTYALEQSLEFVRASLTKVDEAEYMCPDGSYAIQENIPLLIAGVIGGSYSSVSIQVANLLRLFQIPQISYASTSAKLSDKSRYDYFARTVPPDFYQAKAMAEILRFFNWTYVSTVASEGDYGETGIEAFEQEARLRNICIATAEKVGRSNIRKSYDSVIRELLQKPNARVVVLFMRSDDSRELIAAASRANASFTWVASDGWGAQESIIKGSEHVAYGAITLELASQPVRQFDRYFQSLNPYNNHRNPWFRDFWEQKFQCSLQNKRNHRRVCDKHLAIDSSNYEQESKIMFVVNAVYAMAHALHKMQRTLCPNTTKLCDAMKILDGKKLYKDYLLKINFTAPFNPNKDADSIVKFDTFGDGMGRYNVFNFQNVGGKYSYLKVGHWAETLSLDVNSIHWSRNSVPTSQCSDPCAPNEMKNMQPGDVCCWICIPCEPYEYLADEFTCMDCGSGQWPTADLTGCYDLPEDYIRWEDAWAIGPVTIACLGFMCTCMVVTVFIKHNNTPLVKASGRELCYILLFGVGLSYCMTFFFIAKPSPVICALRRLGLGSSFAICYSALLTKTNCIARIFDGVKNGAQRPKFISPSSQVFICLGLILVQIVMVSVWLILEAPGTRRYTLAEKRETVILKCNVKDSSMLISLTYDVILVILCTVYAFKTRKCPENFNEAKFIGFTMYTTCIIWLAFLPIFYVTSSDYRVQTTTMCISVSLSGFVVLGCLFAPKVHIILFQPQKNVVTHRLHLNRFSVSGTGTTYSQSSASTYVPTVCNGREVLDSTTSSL

SMILES | EC50
Cc1ncccc1-c1ccc2c(c1)-n1cc(-c3ccccc3)cc1C(=O)N(C)C21CC1 [Example 95, 5-Methyl-2-phenyl-9-(2-methyl-pyridin-3-yl)-spiro[benzo[f]pyrrolo[1,2-a][1,4]diazepine-6,1′-cyclopropan]-4(5H)-one] | < 0.1 µM
Cc1ncccc1-c1ccc2c(c1)-n1cc(-c3ncc[nH]3)cc1C(=O)N(C)C21CC1 [Example 184] | < 0.1 µM
Cc1ncccc1-c1ccc2c(c1)-n1cncc1C(=O)N(C)C2 [Example 215, 5-Methyl-9-(2-methylpyridin-3-yl)-5,6-dihydro-4H-benzo[f]imidazo[1,5-a][1,4]diazepin-4-one] | > 1 µM
Cc1ncccc1-c1ccc2c(c1)-n1cc(C(=O)C3CCCC3)cc1C(=O)N(C)C21CC1 [Example 194] | 0.1 to 1 µM
COCc1cc2n(c1)-c1cc(-c3ccc(C)nc3)ccc1C1(CC1)N(C)C2=O [Example 205] | < 0.1 µM
Cc1ccncc1-c1ccc2c(c1)-n1cc(-c3ccccc3)cc1C(=O)N(C)C21CC1 [Example 101, 5-Methyl-2-phenyl-9-(4-methyl-pyridin-3-yl)-spiro[benzo[f]pyrrolo[1,2-a][1,4]diazepine-6,1′-cyclopropan]-4(5H)-one] | 0.1 to 1 µM
Cc1ncccc1-c1ccc2c(c1)-n1nc(-c3ccccc3)cc1C(=O)N(C)C21CC1 [Example 125, 9-(2-Methyl-pyridin-3-yl)-5-methyl-2-phenyl-spiro[benzo[f]pyrazolo[1,5-a][1,4]diazepine-6,1′-cyclopropan]-4(5H)-one] | < 0.1 µM
Cc1ncccc1-c1ccc2c(c1)-n1cc(-c3ccc(Cl)cc3)cc1C(=O)N(C)C21CC1 [Example 149] | 0.1 to 1 µM

Other lines, results leading:

EC50 | SMILES
0.1 to 1 µM | CN1C(=O)c2cccn2-c2cc(Br)ccc2C12CC2 [Example 1, 9-Bromo-5-methyl-spiro[benzo[f]pyrrolo[1,2-a][1,4]diazepine-6,1′-cyclopropan]-4(5H)-one]
> 1 µM | Cc1nccnc1-c1ccc2c(c1)-n1cccc1C(=O)N(C)C21CC1 [Example 58, 5-Methyl-9-(3-methyl-pyrazin-2-yl)-5,6-spiro[benzo[f]pyrrolo[1,2-a][1,4]diazepine-6,1′-cyclopropan]-4(5H)-one]
0.1 to 1 µM | CCc1ncccc1-c1ccc2c(c1)-n1cc(CO)cc1C(=O)N(C)C21CC1 [Example 203]
> 1 µM | Cc1ncncc1-c1ccc2c(c1)-n1cccc1C(=O)N(C)C21CC1 [Example 59, 5-Methyl-9-(4-methyl-pyrimidin-5-yl)-spiro[benzo[f]pyrrolo[1,2-a][1,4]diazepine-6,1′-cyclopropan]-4(5H)-one]
> 1 µM | CN1C(=O)c2cccn2-c2cc(-c3cnc(N)c(C(F)(F)F)c3)ccc2C12CC2 [Example 40, 5-Methyl-9-(6-amino-5-trifluoromethyl-pyridin-3-yl)-spiro[benzo[f]pyrrolo[1,2-a][1,4]diazepine-6,1′-cyclopropan]-4(5H)-one]
0.1 to 1 µM | Cc1ncccc1-c1ccc2c(c1F)-n1cccc1C(=O)N(C)C21CC1 [Example 75, 10-Fluoro-5-methyl-9-(2-methyl-pyridin-3-yl)-spiro[benzo[f]pyrrolo[1,2-a][1,4]diazepine-6,1′-cyclopropan]-4(5H)-one]
0.1 to 1 µM | Cc1cc(-c2ccc3c(c2)-n2cccc2C(=O)N(C)C32CC2)ccn1 [Example 26, 5-Methyl-9-(2-methylpyridin-4-yl)-spiro[benzo[f]pyrrolo[1,2-a][1,4]diazepine-6,1′-cyclopropan]-4(5H)-one]

System: not given
Test: not given
Details: not given

SMILES | melting point
Cc1ncccc1-c1ccc2c(c1)-n1cc(-c3ccccc3)nc1C(=O)N(C)C21CC1 (as salt: hydrochloride) [Example 140, 9-(2-Methyl-pyridin-3-yl)-5-methyl-2-phenyl-spiro[benzo[f]imidazo[1,2-a][1,4]diazepine-6,1′-cyclopropan]-4(5H)-one] | 235 to 240 °C
Cc1ncccc1-c1ccc2c(c1)-n1ccnc1C(=O)N(C)C2 (as salt: hydrochloride) [Example 216, 5-Methyl-9-(2-methylpyridin-3-yl)-5,6-dihydro-4H-benzo[f]imidazo[1,2-a][1,4]diazepin-4-one] | 210 to 230 °C
Cc1ccc(-c2ccc3c(c2)-n2cc(-c4ccnn4C)cc2C(=O)N(C)C32CC2)cn1 (as salt: hydrochloride) [Example 159] | 187 to 194 °C
Cc1ccncc1-c1ccc2c(c1)-n1cc(-c3ccccc3)cc1C(=O)N(C)C21CC1 (as salt: hydrochloride) [Example 101, 5-Methyl-2-phenyl-9-(4-methyl-pyridin-3-yl)-spiro[benzo[f]pyrrolo[1,2-a][1,4]diazepine-6,1′-cyclopropan]-4(5H)-one] | 205 to 217 °C
CCc1ncccc1-c1ccc2c(c1)-n1cc(-c3ccccc3F)cc1C(=O)N(C)C21CC1 (as salt: hydrochloride) [Example 162] | 189 to 195 °C
CN1C(=O)c2cc(-c3ccccc3)cn2-c2cc(-c3ccncc3)ccc2C12CC2 (as salt: hydrochloride) [Example 102, 5-Methyl-2-phenyl-9-(pyridin-4-yl)-spiro[benzo[f]pyrrolo[1,2-a][1,4]diazepine-6,1′-cyclopropan]-4(5H)-one] | 220 to 230 °C
Cc1ncccc1-c1ccc2c(c1)-n1cc(C3CCCC3)cc1C(=O)N(C)C21CC1 (as salt: hydrochloride) [Example 156] | 230 to 235 °C
Cc1ncccc1-c1ccc2c(c1)-n1cc(-c3ccccc3)nc1C(=O)N(C)C2 (as salt: hydrochloride) [Example 166, 5-Methyl-9-(2-methylpyridin-3-yl)-2-phenyl-5,6-dihydro-4H-benzo[f]imidazo[1,2-a][1,4]diazepin-4-one] | 240 to 245 °C
Cc1ncccc1-c1ccc2c(c1)-n1cc(-c3cccc(F)c3)cc1C(=O)N(C)C21CC1 (as salt: hydrochloride) [Example 152] | 183 to 190 °C
CN1Cc2ccc(-c3ccc(N)nc3)cc2-n2cc(-c3ccccc3)cc2C1=O (as salt: hydrochloride) [Example 165, 9-(6-Amino-pyridin-3-yl)-5-methyl-2-phenyl-5,6-dihydro-benzo[f]pyrrolo[1,2-a][1,4]diazepin-4-one] | > 250 °C
Cc1ncccc1-c1ccc2c(c1)-n1cc(C(=O)C3CCCC3)cc1C(=O)N(C)C21CC1 (as salt: hydrochloride) [Example 194] | 177 to 190 °C
Cc1ncccc1-c1ccc2c(c1)-n1cc(-c3ncc[nH]3)cc1C(=O)N(C)C21CC1 (as salt: hydrochloride) [Example 184] | > 250 °C
Cc1ncccc1-c1ccc2c(c1)-n1nc(-c3ccccc3)cc1C(=O)N(C)C21CC1 (as salt: hydrochloride) [Example 125, 9-(2-Methyl-pyridin-3-yl)-5-methyl-2-phenyl-spiro[benzo[f]pyrazolo[1,5-a][1,4]diazepine-6,1′-cyclopropan]-4(5H)-one] | 185 to 206 °C
CN1C(=O)c2cc(-c3ccccc3)cn2-c2cc(-c3ccccn3)ccc2C12CC2 (as salt: hydrochloride) [Example 111, 5-Methyl-2-phenyl-9-(pyridin-2-yl)-spiro[benzo[f]pyrrolo[1,2-a][1,4]diazepine-6,1′-cyclopropan]-4(5H)-one] | 185 to 198 °C
CN1C(=O)c2cc(-c3ccccc3)cn2-c2cc(-c3ccc(N)nc3)ccc2C12CC2 (as salt: hydrochloride) [Example 96, 5-Methyl-2-phenyl-9-(6-amino-pyridin-3-yl)-spiro[benzo[f]pyrrolo[1,2-a][1,4]diazepine-6,1′-cyclopropan]-4(5H)-one] | > 250 °C

The next lines start with the values.

melting point | SMILES
140 to 147 °C | Cc1ncncc1-c1ccc2c(c1)-n1cccc1C(=O)N(C)C21CC1 (as salt: hydrochloride) [Example 59, 5-Methyl-9-(4-methyl-pyrimidin-5-yl)-spiro[benzo[f]pyrrolo[1,2-a][1,4]diazepine-6,1′-cyclopropan]-4(5H)-one]
210 to 220 °C | CN1C(=O)c2cccn2-c2cc(C3=CCN(c4ccncn4)CC3)ccc2C12CC2 (as salt: hydrochloride) [Example 47, 5-Methyl-9-(1-pyrimidin-4-yl-1,2,3,6-tetrahydro-pyridin-4-yl)-spiro[benzo[f]pyrrolo[1,2-a][1,4]diazepine-6,1′-cyclopropan]-4(5H)-one]
200 to 210 °C | Cc1ncccc1-c1cc2c(cc1F)C1(CC1)N(C)C(=O)c1cccn1-2 (as salt: hydrochloride) [Example 77, 8-Fluoro-5-methyl-9-(2-methyl-pyridin-3-yl)-spiro[benzo[f]pyrrolo[1,2-a][1,4]diazepine-6,1′-cyclopropan]-4(5H)-one]
190 to 198 °C | Cc1ncccc1-c1ccc2c(c1)-n1cc(C3CC3)cc1C(=O)N(C)C21CC1 (as salt: hydrochloride) [Example 155]
> 250 °C | Cc1cnccc1-c1ccc2c(c1)-n1cccc1C(=O)N(C)C21CC1 (as salt: hydrochloride) [Example 38, 5-Methyl-9-(3-methylpyridin-4-yl)-spiro[benzo[f]pyrrolo[1,2-a][1,4]diazepine-6,1′-cyclopropan]-4(5H)-one]
183 to 193 °C | Cc1cc(-c2ccc3c(c2)-n2cccc2C(=O)N(C)C32CC2)ccn1 (as salt: hydrochloride) [Example 26, 5-Methyl-9-(2-methylpyridin-4-yl)-spiro[benzo[f]pyrrolo[1,2-a][1,4]diazepine-6,1′-cyclopropan]-4(5H)-one]
230 to 250 °C | Cc1ncccc1-c1ccc2c(c1)-n1cccc1C(=O)N(C)C2(C)C (as salt: hydrochloride) [Example 223, 5,6,6-Trimethyl-9-(2-methyl-pyridin-3-yl)-5,6-dihydro-benzo[f]pyrrolo[1,2-a][1,4]diazepin-4-one]
